Laboratory results reported in patent US11518754B2, “Radiolabeled pharmaceuticals and methods of making and using same” (YALE UNIVERSITY, priority 2017, dated 2022).
“And” between values parts separate entries of the source, which are not always exact repeats. Identical values can stand only once.

What was measured:
[1] = target: SV2A (Macaca mulatta, UniProt H9EQH8); experiment: PET imaging studies in rhesus monkeys; conditions: for Binding potential (BPND): from VT, centrum semiovale as reference region
Method: Experiments were performed in rhesus monkeys (Macaca mulatta). Rhesus monkeys were sedated using intramuscular (i.m.) injection of ketamine and glycopyrrolate approximately 2 hours before the PET scan and anesthesia was maintained with isoflurane (1.5%-2.5%) for the duration of the experiments. Baseline PET scans were obtained after intravenous (i.v.) injection of ^11C-3, ^18F-3, ^18F-4, ^18F-5, ^18F-10, ^18F-11, or ^18F-12.
Arterial blood samples were collected during the PET scans to calculate the plasma input function and to determine the unmetabolized parent fraction using the automatic column-switching HPLC system. Plasma free fraction (fp) was measured in triplicate using the ultrafiltration method.
PET scans of the brain were acquired using the FOCUS 220 PET scanner (Siemens Preclinical Solutions) with a reconstructed image resolution of approximately 1.5 mm. After a transmission scan, the radioligand was injected i.v. as a 3 min slow bolus by an infusion pump (PHD 22/2000; Harvard Apparatus). List-mode data were acquired for 120-180 min and binned into sinograms with an applicable number of frames. Scan data were reconstructed with a Fourier rebinning/filtered backprojection algorithm with corrections for attenuation, scanner normalization, radiation scatter, and randoms. Regions of interest were manually delineated on a single representative anatomic rhesus monkey MR image registered to a template image. The regions used in this study were amygdala, brain stem, caudate, centrum semiovale, cerebellum, cingulate cortex, frontal cortex, globus pallidus, insular cortex, nucleus accumbens, occipital cortex, pons, putamen, temporal cortex, and thalamus. Registration parameters were obtained to apply the regions of interest to individual PET scans, and regional time-activity curves were generated. Regional time-activity curves of the brain were analyzed with the 1-tissue-(1T) compartment model. Fit quality was compared with the 2-tissue model and the multilinear analysis method to calculate VT.
Typical injected radioactivity amount was 0.5-5 mCi per injection, with typical injected mass amount of 1-10 μg.
Specific binding to SV2A was further examined for ^11C-3, ^18F-3, and ^18F-11 in blocking studies, where levetiracetam or UCB-J ((R)-3) was i.v. infused before injection of the radiotracers.

[2] = Plasma free fraction (fp) by ultrafiltration method; assay type: in vitro ADME, rhesus monkeys (Macaca mulatta); conditions: plasma (from arterial blood samples), rhesus monkey plasma
[3] = target: SV2A (Papio anubis, UniProt A0A096NYL0); experiment: PET measurement in an olive baboon; assay type: in vivo, olive baboon (Papio anubis); conditions: gray matter regions, baboon brain
Method: Experiments were conducted in one olive baboon (P. anubis). […] PET images of the brain were acquired using a Siemens Biograph mCT system (Siemens Medical Solutions). […] List-mode data were acquired for 120 min and binned into sinograms with the following frame timing: 6×30 sec; 3×1 min; 2×2 min; and 22×5 min.
PET data were reconstructed with a TrueX+TOF algorithm with corrections for attenuation, normalization, scatter and randoms. Regions of interest (ROIs) were manually delineated on a single representative anatomical baboon magnetic resonance image (MRI) registered to a template image. […] MRI-to-PET registration parameters were obtained to apply the ROIs to individual PET scans, and regional time-activity curves (TACs) were generated. VT values were estimated using a one-tissue (1T) compartment model with the metabolite-corrected input function.
Arterial blood samples were collected to determine the plasma input function, including measurement of the unmetabolized ^11C-3 fraction. The free fraction of ^11C-3 in plasma was determined in arterial blood samples taken immediately before ^11C-3 injection.

[4] = target: T1, SV2A (Homo sapiens (Human), UniProt Q7L0J3); experiment: PET imaging with (R)-11C-3 in patients with AD dementia and MCI; assay type: in vivo; conditions: AD/MCI patients vs cognitively normal subjects
[5] = target: T1, SV2A; experiment: PET imaging with (R)-11C-3 in patients with Parkinson's disease; assay type: in vivo; conditions: PD subjects vs age-matched healthy controls
[6] = target: T1, SV2A; experiment: PET imaging with (R)-11C-3 in patients with temporal lobe epilepsy
Method: PET imaging with (R)-^11C-3 was performed in healthy human subjects and patients with various disorders to determine if SV2A imaging can be used as an in vivo biomarker to detect changes in synaptic density in human diseases.
PET imaging with (R)-^11C-3 was carried out in ten healthy control subjects and nine patients of temporal lobe epilepsy (TLE) with mesial temporal sclerosis (MTS).

T1 sequence (Q7L0J3 whole entry, looked up): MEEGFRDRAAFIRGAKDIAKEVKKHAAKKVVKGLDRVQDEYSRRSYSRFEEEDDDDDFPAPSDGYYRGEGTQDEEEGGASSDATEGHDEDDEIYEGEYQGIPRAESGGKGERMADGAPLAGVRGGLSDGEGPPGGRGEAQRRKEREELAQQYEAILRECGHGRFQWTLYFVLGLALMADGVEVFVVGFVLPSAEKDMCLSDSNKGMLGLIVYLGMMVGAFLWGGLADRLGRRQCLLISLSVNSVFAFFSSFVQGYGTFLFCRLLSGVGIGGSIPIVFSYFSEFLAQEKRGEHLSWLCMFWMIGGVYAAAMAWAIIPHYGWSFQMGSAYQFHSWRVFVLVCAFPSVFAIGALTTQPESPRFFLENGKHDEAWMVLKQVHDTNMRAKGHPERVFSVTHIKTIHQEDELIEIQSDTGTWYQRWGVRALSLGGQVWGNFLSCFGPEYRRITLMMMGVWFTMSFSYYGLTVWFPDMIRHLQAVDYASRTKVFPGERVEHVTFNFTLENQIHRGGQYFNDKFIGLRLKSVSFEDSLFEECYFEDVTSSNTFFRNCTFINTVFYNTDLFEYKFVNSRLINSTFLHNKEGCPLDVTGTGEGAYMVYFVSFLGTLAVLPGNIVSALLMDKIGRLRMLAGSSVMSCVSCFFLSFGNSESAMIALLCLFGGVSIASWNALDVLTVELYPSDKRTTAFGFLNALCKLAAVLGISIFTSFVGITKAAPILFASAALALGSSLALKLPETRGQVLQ
Chain of SV2A (Macaca mulatta, UniProt H9EQH8) (H9EQH8 1-742): as the sequence (Q7L0J3 whole entry, looked up) above, with G64S, I572V counted along it
Chain of SV2A (Papio anubis, UniProt A0A096NYL0) (A0A096NYL0 1-742): as the sequence (Q7L0J3 whole entry, looked up) above, with G64S, G108S, I572V counted along it

Cc1cnccc1CN1CC(c2cc(F)c(F)c(F)c2)CC1=O (single isomer, unassigned) [^11C-3, 1-((3-methylpyridin-4-yl)methyl)-4-(3,4,5-trifluorophenyl) pyrrolidin-2-one]
Binding potential (BPND) ([1]; Amygdala): 0.85 ± 0.34
Binding potential (BPND) ([1]; Brainstem): 0.76 ± 0.21
Binding potential (BPND) ([1]; Caudate nucleus): 2.40 ± 0.72
Binding potential (BPND) ([1]; Cerebellum): 1.68 ± 0.31
Binding potential (BPND) ([1]; Cingulate cortex): 3.17 ± 0.84
Binding potential (BPND) ([1]; Frontal cortex): 3.18 ± 0.91
Binding potential (BPND) ([1]; Globus pallidus): 1.10 ± 0.28
Binding potential (BPND) ([1]; Hippocampus): 1.59 ± 0.39
Binding potential (BPND) ([1]; Insular cortex): 3.12 ± 0.81
Binding potential (BPND) ([1]; Nucleus accumbens): 3.04 ± 0.69
Binding potential (BPND) ([1]; Occipital cortex): 2.97 ± 0.65
Binding potential (BPND) ([1]; Pons): 0.75 ± 0.21
Binding potential (BPND) ([1]; Putamen): 2.42 ± 0.63
Binding potential (BPND) ([1]; Temporal cortex): 2.79 ± 0.61
Binding potential (BPND) ([1]; Thalamus): 2.03 ± 0.62
Uptake of radiotracer in blocking studies ([1]; levetiracetam (30 mg/kg) or UCB-J (150 μg/kg) i.v. 10 min before radiotracer injection): reduced to background levels
time to SUV peak in gray matter regions ([1]; rhesus monkey, in vivo, iv): slower
fraction unbound [2]: 0.44 ± 0.01
peak uptake (standardized uptake value, SUV) [3]: 10-15
time to peak uptake after injection [3]: 6 to 16 min
reduction in hippocampal VT ([4]; P=0.001): 28%
reduction in hippocampal SV2A binding (BPND) ([4]; P=0.005): 41%
decrease in BPND ([5]; cortical regions): 16%-20%
decrease in VT ([5]; cortical regions, listed as (R)-^11C-3): 19-23% and 19%-23%
decrease in BPND ([5]; putamen): 16%
decrease in VT ([5]; putamen): 15%
decrease in BPND ([5]; substantia nigra): 33%
decrease in VT ([5]; substantia nigra): 19%
asymmetries in binding relative to 18F-FDG ([6]; TLE subjects with MTS): 2.3 fold
BPND asymmetry indices ([6]; hippocampus, nine TLE subjects with MTS): −38±21%
